The source of these data is patent publication US20100280010A1, “CHEMICAL COMPOUNDS” (priority 2006, published 2010).

The test has as its system HIV-1 (Ba-L or IIIB) infection of HOS cell line (expressing hCXCR4/hCCR5/hCD4/pHIV-LTR-luciferase). The experiment in a line: HOS HIV-1 Infectivity Assay. The format is cell-based. As to conditions: Human immunodeficiency virus 1, HOS, virus strain not given, read-out: Activity Level. On the procedure:
Compounds were profiled against two HIV-1 viruses, the M-tropic (CCR5 utilizing) Ba-L strain and the T-tropic (CXCR4 utilizing) IIIB strain. Ba-L was propagated in either peripheral blood lymphocytes or SupT1/CCR5+/CXCR4+ cells. IIIB was propagated in peripheral blood lymphocytes. Compounds were tested for their ability to block infection of the HOS cell line (expressing hCXCR4/hCCR5/hCD4/pHIV-LTR-luciferase) by either HIV-1 Ba-L or HIV-1 IIIB. Compound cytotoxicity was also examined in the absence of virus addition.
HOS cells (expressing hCXCR4/hCCR5/hCD4/pHIV-LTR-luciferase) were harvested and diluted in Dulbeccos modified Eagles media supplemented with 2% FCS to a concentration of 120,000 cells/ml. The cells were plated into 96-well plates (50 μl per well) and the plates were placed in a tissue culture incubator ([…]; 5% CO2195% air) for a period of 24 h.
Subsequently, 50 μl of the desired drug solution (2 times the final concentration) was added to each well and the plates were returned to the tissue culture incubator (370° C.; 5% CO2/95% air) for 1 h. Following this incubation, 60 μl of diluted virus (4 times the final concentration) was added to 60 μl of 2× the final desired concentration of the compound and 100 μl of this compound/virus mix was added to each well (approximately 2 million RLU per well of virus). The plates were returned to the tissue culture incubator (370° C.; 5% CO2/95% air) and were incubated for a further 96 h.
Following this incubation the endpoint for the virally infected cultures was quantified following addition of Steady-Glo Luciferase assay system reagent (Promega, Madison, Wis.). Cell viability or non-infected cultures was measured using a CellTiter-Glo luminescent cell viability assay system (Promega, Madison, Wis.). All luminescent readouts are performed on a Topcount luminescence detector (Packard, Meridien, Conn.).
As to `CC(=O)c1c(CN(C)[C@H]2CCCc3cccnc32)nc2cccc(N3CCN(C)CC3)n12` [Example 14, 1-[5-(4-Methyl-1-piperazinyl)-2-({methyl[(8S)-5,6,7,8-tetrahydro-8-quinolinyl]amino}methyl)imidazo[1,2-a]pyridin-3-yl]ethanone], the IC50 was less than 0.1 µM.

For the molecule `CN1CCN(c2cccc3nc(CN(C)[C@H]4CCCc5cccnc54)c(Br)n23)CC1` [Example 16, (8S)—N-{[3-Bromo-5-(4-methyl-1-piperazinyl)imidazo[1,2-a]pyridin-2-yl]methyl}-N-methyl-5,6,7,8-tetrahydro-8-quinolinamine], the IC50 was less than 0.1 µM.

With `CN1CCN(c2cccc3nc(CN(C)[C@H]4CCCc5cccnc54)c(C#N)n23)CC1` [Example 17, 5-(4-Methyl-1-piperazinyl)-2-({methyl[(8S)-5,6,7,8-tetrahydro-8-quinolinyl]amino}methyl)imidazo[1,2-a]pyridine-3-carbonitrile], the IC50 is less than 0.1 µM.

`CN1CCN(c2cccc3nc(CN(C)[C@H]4CCCc5cccnc54)c(C(N)=O)n23)CC1` [Example 18, 5-(4-Methyl-1-piperazinyl)-2-({methyl[(8S)-5,6,7,8-tetrahydro-8-quinolinyl]amino}methyl)imidazo[1,2-a]pyridine-3-carboxamide]: the IC50 is less than 0.1 µM.

`CCN(Cc1nc2cccc(N3CCN(C)CC3)n2c1C#N)[C@H]1CCCc2cccnc21` [Example 21, 2-({Ethyl[(8S)-5,6,7,8-tetrahydro-8-quinolinyl]amino}methyl)-5-(4-methyl-1-piperazinyl)imidazo[1,2-a]pyridine-3-carbonitrile]: the IC50 is less than 0.1 µM.

As for `CCN(Cc1nc2cccc(N3CCN(C)CC3)n2c1C(N)=O)[C@H]1CCCc2cccnc21` [Example 22, 2-({Ethyl[(8S)-5,6,7,8-tetrahydro-8-quinolinyl]amino}methyl)-5-(4-methyl-1-piperazinyl)imidazo[1,2-a]pyridine-3-carboxamide], the IC50 was less than 0.1 µM.

For `CCCN(Cc1nc2cccc(N3CCN(C)CC3)n2c1C#N)[C@H]1CCCc2cccnc21` [Example 25, 5-(4-Methyl-1-piperazinyl)-2-({propyl[(8S)-5,6,7,8-tetrahydro-8-quinolinyl]amino}methyl)imidazo[1,2-a]pyridine-3-carbonitrile], the IC50 was less than 0.1 µM.

Regarding `CCCN(Cc1nc2cccc(N3CCN(C)CC3)n2c1C(N)=O)[C@H]1CCCc2cccnc21` [Example 26, 5-(4-Methyl-1-piperazinyl)-2-({propyl[(8S)-5,6,7,8-tetrahydro-8-quinolinyl]amino}methyl)imidazo[1,2-a]pyridine-3-carboxamide], the IC50 is less than 0.1 µM.

As to `CC(C)N(Cc1nc2cccc(N3CCN(C)CC3)n2c1C#N)[C@H]1CCCc2cccnc21` [Example 29, 2-({(1-Methylethyl)[(8S)-5,6,7,8-tetrahydro-8-quinolinyl]amino}methyl)-5-(4-methyl-1-piperazinyl)imidazo[1,2-a]pyridine-3-carbonitrile], the IC50 was less than 0.1 µM.

For `CC(C)N(Cc1nc2cccc(N3CCN(C)CC3)n2c1C(N)=O)[C@H]1CCCc2cccnc21` [Example 30, 2-([(1-Methylethyl)[(8S)-5,6,7,8-tetrahydro-8-quinolinyl]amino]methyl)-5-(4-methyl-1-piperazinyl)imidazo[1,2-a]pyridine-3-carboxamide], the IC50 is less than 0.1 µM.

With `CN1CCN(c2cccc3nc(CN(CC4CC4)[C@H]4CCCc5cccnc54)c(C#N)n23)CC1` [Example 33, 2-({(Cyclopropylmethyl)[(8S)-5,6,7,8-tetrahydro-8-quinolinyl]amino}methyl)-5-(4-methyl-1-piperazinyl)imidazo[1,2-a]pyridine-3-carbonitrile], the IC50 is less than 0.1 µM.

In the case of `CN(C)[C@@H]1CCN(c2cccc3nc(CN(C)[C@H]4CCCc5cccnc54)c(C#N)n23)C1` [Example 38, 5-[(3R)-3-(Dimethylamino)-1-pyrrolidinyl]-2-({methyl[(8S)-5,6,7,8-tetrahydro-8-quinolinyl]amino}methyl)imidazo[1,2-a]pyridine-3-carbonitrile], the IC50 was less than 0.1 µM.
